Measurements from PubChem BioAssay AID256 (DTP/NCI, 2004).
Where “and” joins values, the source holds several entries; their conditions need not be identical. Equal entries are not always repeated. Inconclusive results and toxic doses are left out.

Test system: CD2F1 mice, L1210 leukemia ip, survival T/C
Assay: NCI In Vivo Anticancer Drug Screen. Data for tumor model L1210 Leukemia (intraperitoneal) in CD2F1 (CDF1) mice
Conditions: higher = longer survival
Method in brief: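 In this screen, transplantable tumors were grown in mice given either the compound or its vehicle. Results were expressed as the treated measurement relative to the control measurement.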

[1] = endpoint: mean survival time, dose: 100.0 mg/kg/injection, schedule: Q01DX009 (ip), vehicle: saline with Tween-80
[2] = endpoint: mean survival time, dose: 200.0 mg/kg/injection, schedule: Q01DX009 (ip), vehicle: saline with Tween-80
[3] = endpoint: mean survival time, dose: 400.0 mg/kg/injection, schedule: Q01DX009 (ip), vehicle: saline with Tween-80
[4] = endpoint: mean survival time, dose: 50.0 mg/kg/injection, schedule: Q01DX009 (ip), vehicle: saline with Tween-80
[5] = endpoint: mean survival time, dose: 12.5 mg/kg/injection, schedule: Q04DX003 (ip), vehicle: saline with Tween-80
[6] = endpoint: mean survival time, dose: 25.0 mg/kg/injection, schedule: Q04DX003 (ip), vehicle: saline with Tween-80
[7] = endpoint: mean survival time, dose: 100.0 mg/kg/injection, schedule: Q04DX003 (ip), vehicle: saline sonified

C[n+]1c(-c2cccc(-c3ccccc3)c2)c2cc([N+](=O)[O-])ccc2c2ccccc21
T/C (endpoint: mean survival time, dose: 1.56 mg/kg/injection, schedule: Q01DX009 (ip), vehicle: Klucel (hydroxypropylcellulose) (HPC)): 93 % of control
T/C (endpoint: mean survival time, dose: 3.13 mg/kg/injection, schedule: Q01DX009 (ip), vehicle: Klucel (hydroxypropylcellulose) (HPC)): 94 % of control
T/C (endpoint: mean survival time, dose: 6.25 mg/kg/injection, schedule: Q01DX009 (ip), vehicle: Klucel (hydroxypropylcellulose) (HPC)): 98 % of control
T/C (endpoint: mean survival time, dose: 12.5 mg/kg/injection, schedule: Q01DX009 (ip), vehicle: Klucel (hydroxypropylcellulose) (HPC)): 92 % of control
T/C (endpoint: mean survival time, dose: 25.0 mg/kg/injection, schedule: Q01DX009 (ip), vehicle: Klucel (hydroxypropylcellulose) (HPC)): 96 % of control
T/C (endpoint: mean survival time, dose: 25.0 mg/kg/injection, schedule: Q01DX009 (ip), vehicle: water): 97 % of control

O=Cc1ccc(OC(=O)Nc2cccc3ccccc23)cc1
T/C (endpoint: mean survival time, dose: 100.0 mg/kg/injection, schedule: Q04DX002 (ip), vehicle: saline with Tween-80): 91 % of control
T/C (endpoint: mean survival time, dose: 200.0 mg/kg/injection, schedule: Q04DX002 (ip), vehicle: saline with Tween-80): 98 % of control
T/C (endpoint: mean survival time, dose: 400.0 mg/kg/injection, schedule: Q04DX002 (ip), vehicle: saline with Tween-80): 87 % of control

COC(=O)NC(N)=Nc1ccccc1
T/C (endpoint: mean survival time, dose: 12.5 mg/kg/injection, schedule: Q01DX009 (ip), vehicle: saline with Tween-80): 96 % of control
T/C (endpoint: mean survival time, dose: 25.0 mg/kg/injection, schedule: Q01DX009 (ip), vehicle: saline with Tween-80): 87 % of control

O=C(O)C1(C(=O)O)CCCCC1.[NH-]CC1(C[NH-])CCCCC1.[Pt+2]
T/C (endpoint: mean survival time, dose: 30.0 mg/kg/injection, schedule: Q04DX003 (ip), vehicle: suspension in saline): 118 % of control
T/C (endpoint: mean survival time, dose: 60.0 mg/kg/injection, schedule: Q04DX003 (ip), vehicle: suspension in saline): 118 % of control

C=CCOc1c(C)cc(C)cc1C
T/C (endpoint: mean survival time, dose: 50.0 mg/kg/injection, schedule: Q01DX009 (ip), vehicle: Klucel (hydroxypropylcellulose) (HPC)): 113 % of control
T/C (endpoint: mean survival time, dose: 100.0 mg/kg/injection, schedule: Q01DX009 (ip), vehicle: Klucel (hydroxypropylcellulose) (HPC)): 94 % of control
T/C (endpoint: mean survival time, dose: 200.0 mg/kg/injection, schedule: Q01DX009 (ip), vehicle: Klucel (hydroxypropylcellulose) (HPC)): 102 % of control

CC(C)[N-]C(C)C.CC(C)[N-]C(C)C.[Cl][Pt+2][Cl]
T/C (endpoint: mean survival time, dose: 10.0 mg/kg/injection, schedule: Q04DX003 (ip), vehicle: saline with Tween-80): 102 % of control
T/C (endpoint: mean survival time, dose: 20.0 mg/kg/injection, schedule: Q04DX003 (ip), vehicle: saline with Tween-80): 97 % of control
T/C (endpoint: mean survival time, dose: 40.0 mg/kg/injection, schedule: Q04DX003 (ip), vehicle: saline with Tween-80): 105 % of control
T/C (endpoint: mean survival time, dose: 80.0 mg/kg/injection, schedule: Q04DX003 (ip), vehicle: saline with Tween-80): 97 % of control
T/C (endpoint: mean survival time, dose: 160.0 mg/kg/injection, schedule: Q04DX003 (ip), vehicle: saline with Tween-80): 97 % of control

C=CC1C[N+]2(SS(=O)(=O)O)CCC1CC2C(O)c1ccnc2ccc(OC)cc12 (stereo not drawn)
T/C (endpoint: mean survival time, dose: 75.0 mg/kg/injection, schedule: Q04DX003 (ip), vehicle: saline): 100 % of control
T/C (endpoint: mean survival time, dose: 150.0 mg/kg/injection, schedule: Q04DX003 (ip), vehicle: saline): 95 % of control

Cc1c(Cl)c(Cl)c(Cl)c(Cl)c1Cl
T/C [1]: 93 % of control
T/C [2]: 93 % of control
T/C [3]: 92 % of control

C/C=C\c1ccc(OCCOC(=O)Nc2ccc(Cl)cc2OC)c(OC)c1
T/C [4]: 89 % of control
T/C [1]: 89 % of control
T/C [2]: 93 % of control

CN(C)c1ccc(/C=C2/CCCC/C2=N/O)cc1
T/C (endpoint: mean survival time, dose: 100.0 mg/kg/injection, schedule: Q04DX003 (ip), vehicle: Klucel (hydroxypropylcellulose) (HPC)): 102 % of control
T/C (endpoint: mean survival time, dose: 200.0 mg/kg/injection, schedule: Q04DX003 (ip), vehicle: Klucel (hydroxypropylcellulose) (HPC)): 94 % of control
T/C (endpoint: mean survival time, dose: 400.0 mg/kg/injection, schedule: Q04DX003 (ip), vehicle: Klucel (hydroxypropylcellulose) (HPC)): 98 % of control

CC1(C)OCC(CO)(Nc2nc(N3CC3)nc(N3CC3)n2)CO1
T/C (endpoint: mean survival time, dose: 0.31 mg/kg/injection, schedule: Q01DX009 (ip), vehicle: saline): 111 % of control
T/C (endpoint: mean survival time, dose: 0.62 mg/kg/injection, schedule: Q01DX009 (ip), vehicle: saline): 117 % of control and 112 % of control
T/C (endpoint: mean survival time, dose: 1.25 mg/kg/injection, schedule: Q01DX009 (ip), vehicle: saline): 194 % of control
T/C (endpoint: mean survival time, dose: 2.5 mg/kg/injection, schedule: Q01DX009 (ip), vehicle: saline): 186 % of control and 221 % of control and 104 % of control

CCOCc1cc([N+](=O)[O-])cc([N+](=O)[O-])c1O
T/C [5]: 98 % of control
T/C [6]: 98 % of control
T/C (endpoint: mean survival time, dose: 50.0 mg/kg/injection, schedule: Q04DX003 (ip), vehicle: saline with Tween-80): 100 % of control

Nc1nccc(N2CCCCC2)n1
T/C (endpoint: mean survival time, dose: 6.25 mg/kg/injection, schedule: Q04DX003 (ip), vehicle: saline with Tween-80): 100 % of control
T/C [5]: 100 % of control
T/C [6]: 97 % of control

CCOC(=O)c1cc(Cl)cc(Cl)c1N=NN(C)C
T/C (endpoint: mean survival time, dose: 25.0 mg/kg/injection, schedule: Q01DX009 (ip), vehicle: saline): 93 % of control
T/C (endpoint: mean survival time, dose: 50.0 mg/kg/injection, schedule: Q01DX009 (ip), vehicle: saline): 93 % of control
T/C (endpoint: mean survival time, dose: 100.0 mg/kg/injection, schedule: Q01DX009 (ip), vehicle: saline): 100 % of control
T/C (endpoint: mean survival time, dose: 200.0 mg/kg/injection, schedule: Q01DX009 (ip), vehicle: saline): 97 % of control

CC(C(=O)O)C(=O)O.[NH-]CC[NH-].[Pt+2]
T/C (endpoint: mean survival time, dose: 60.0 mg/kg/injection, schedule: Q04DX003 (ip), vehicle: water): 116 % of control

CS(=O)(=O)c1ccnc2ccccc12
T/C (endpoint: mean survival time, dose: 100.0 mg/kg/injection, schedule: Q04DX003 (ip), vehicle: saline): 98 % of control
T/C (endpoint: mean survival time, dose: 200.0 mg/kg/injection, schedule: Q04DX003 (ip), vehicle: saline): 92 % of control
T/C (endpoint: mean survival time, dose: 400.0 mg/kg/injection, schedule: Q04DX003 (ip), vehicle: saline): 95 % of control

NNc1ccc(-c2ccc(NN)cc2)cc1
T/C [1]: 101 % of control
T/C [2]: 95 % of control
T/C [3]: 96 % of control

[Cl][Pt+2][Cl].[NH-]CC1([NH-])CCCCC1
T/C (endpoint: mean survival time, dose: 0.19 mg/kg/injection, schedule: Q04DX003 (ip), vehicle: saline with Tween-80): 107 % of control
T/C (endpoint: mean survival time, dose: 0.39 mg/kg/injection, schedule: Q04DX003 (ip), vehicle: saline with Tween-80): 107 % of control
T/C (endpoint: mean survival time, dose: 0.79 mg/kg/injection, schedule: Q04DX003 (ip), vehicle: saline with Tween-80): 113 % of control
T/C (endpoint: mean survival time, dose: 1.56 mg/kg/injection, schedule: Q04DX003 (ip), vehicle: saline with Tween-80): 114 % of control
T/C (endpoint: mean survival time, dose: 3.13 mg/kg/injection, schedule: Q04DX003 (ip), vehicle: saline): 202 % of control
T/C (endpoint: mean survival time, dose: 6.25 mg/kg/injection, schedule: Q04DX003 (ip), vehicle: saline): 184 % of control
T/C [5]: 244 % of control

CCCC1=CC(C)(C)CC(C)=C1 (tested in a mixture with another compound)
T/C [4]: 98 % of control
T/C [1]: 96 % of control
T/C (endpoint: mean survival time, dose: 100.0 mg/kg/injection, schedule: Q04DX003 (ip), vehicle: saline with Tween-80): 102 % of control
T/C [2]: 100 % of control
T/C (endpoint: mean survival time, dose: 200.0 mg/kg/injection, schedule: Q04DX003 (ip), vehicle: saline with Tween-80): 100 % of control

c1ccc([Te][Te]c2ccccc2)cc1
T/C (endpoint: median survival time, dose: 12.5 mg/kg/injection, schedule: Q01DX009 (ip), vehicle: saline with Tween-80): 104 % of control
T/C (endpoint: median survival time, dose: 25.0 mg/kg/injection, schedule: Q01DX009 (ip), vehicle: saline with Tween-80): 108 % of control
T/C (endpoint: median survival time, dose: 50.0 mg/kg/injection, schedule: Q01DX009 (ip), vehicle: saline with Tween-80): 104 % of control

CCCCCCN(CCCCCC)CC(O)c1ccncc1 (stereo not drawn)
T/C (endpoint: mean survival time, dose: 25.0 mg/kg/injection, schedule: Q04DX003 (ip), vehicle: saline sonified): 100 % of control
T/C (endpoint: mean survival time, dose: 50.0 mg/kg/injection, schedule: Q04DX003 (ip), vehicle: saline sonified): 92 % of control
T/C [7]: 100 % of control

CC1(C)N=C(N)N=C(N)N1c1ccc(CCCCc2ccc(Cl)c(S(=O)(=O)F)c2)c(Cl)c1
T/C (endpoint: mean survival time, dose: 2.4 mg/kg/injection, schedule: Q01DX009 (ip), vehicle: saline with Tween-80): 101 % of control
T/C (endpoint: mean survival time, dose: 3.6 mg/kg/injection, schedule: Q01DX009 (ip), vehicle: saline with Tween-80): 95 % of control
T/C (endpoint: mean survival time, dose: 5.4 mg/kg/injection, schedule: Q01DX009 (ip), vehicle: saline with Tween-80): 104 % of control
T/C (endpoint: mean survival time, dose: 8.0 mg/kg/injection, schedule: Q01DX009 (ip), vehicle: saline with Tween-80): 106 % of control
T/C (endpoint: mean survival time, dose: 12.0 mg/kg/injection, schedule: Q01DX009 (ip), vehicle: saline with Tween-80): 108 % of control
T/C (endpoint: mean survival time, dose: 18.0 mg/kg/injection, schedule: Q01DX009 (ip), vehicle: saline with Tween-80): 117 % of control
T/C [7]: 90 % of control
